Test results as given in patent US20070269420A1, “Compounds, Compositions and Methods for Treatment and Prophylaxis of Hepatitis C Viral Infections and Associated Diseases” (priority 2003, published 2007).
Read-outs that look alike come from different tables or passages of the source.

Assays:
HCV NS4B = target: T1, HCV NS4B (Hepatitis C virus genotype 1b, UniProt Q9WMX2); experiment: NS4B binding assay (quenching of intrinsic protein fluorescence)
T1 construct: NS4B was cloned, expressed and purified to establish an assay; made in house
From the text: NS4B was cloned, expressed and purified to establish an assay, which takes advantage of the intrinsic fluorescent properties of proteins and identifies compounds, which inhibit by a NS4B specific mechanism. This protein is necessary for viral replication. It is thought to act as an anchor securing the replication complex to cellular membranes, where replication is known to occur. Several other functions necessary for viral replication have also ascribed to NS4B.

[1] = system: HCV replicon (BB7 sequence) in Huh-7-Clone A cells; experiment: HCV replicon NS5A ELISA, inhibition of viral RNA replication; type: cell-based, hepatitis C virus; conditions: Hepatitis C virus
Procedure: Antiviral activity of representative compounds of the invention was evaluated in a human liver-derived cell line (Huh-7-Clone A) containing the HCV replicon (BB7 sequence) (See Lohmann et al. Science. 1999, 285:110-3; Blight K J et al., Science. 2000, 290:1972-4; Pietschmann, T. et al., J. Virol. 2001, 73:1252-1264; and Lohmann, V. et al., J. Virol. 2001, 75:1437-1449). The HCV replicon is a subgenomic viral RNA that expresses the HCV proteins required for its own replication. These proteins include non-structural proteins NS3, NS4A, NS4B, NS5A and NS5B. The replicon also contains a foreign gene encoding a drug-selectable marker (neomycin phosphotransferase) to allow for G418 (neomycin) selection of cells that contain the replicon.
An ELISA (enzyme-linked immunosorbant assay) was used to determine the effect of compounds within the scope of the invention on the amount of HCV NS5A protein produced after a 72-hour incubation of the replicon-containing cells in the presence of varying concentrations of compound. Huh7-Clone A cells were seeded in 96-well plates at a subconfluent density (9000 cells/well) in medium containing 2% FBS and incubated for 4 hours to allow attachment to occur. HCV-086 (solubilized with 100% dimethylsulfoxide [DMSO]) was added to wells using an 8-point, 3-fold serial dilution series, with a final DMSO concentration of 1% in a total volume of 200 μL. Plates were incubated for 72 hours at 37° C. and 5% CO2. Under these conditions, the cells are approximately 25% confluent at the time of seeding and 80-90% confluent on day 3. COSTAR® 96-well cell culture plates were used but other known cell culture plates may be used. After incubation, media is removed from wells and the cells are fixed to the assay plate using 0.05% glutaraldehyde (Fisher # 02957-4). The glutaraldehyde is then washed off using phosphate-buffered saline (PBS) following a 1 hour incubation and cells are blocked for non-specific antibody binding using for example SUPERBLOCK® reagent (blocking buffer) in PBS. The blocking agent is rinsed from the cells with PBS after 1 hour at 37° C., and HCV NS5A monoclonal antibody (Virostat # 1873) is added to each well containing compound. Primary antibody is incubated for 1 hour at 37° C. and rinsed 3 times with PBS containing 0.02% TWEEN-20™ before addition of Horseradish Peroxidase (HRP) conjugated secondary antibody. HRP is incubated for 1 hour at 37° C. and rinsed several times, first with PBS/TWEEN-20™ followed by PBS alone. To quantify peroxidase activity, 3,3′,5,5′-tetramethylbenzidine (TMB) substrate is added to the plate and after 30 minutes, the plates are read in an ELISA plate reader at an OD of 650 nm.
Compound dose response was measured in an 8-point dose curve diluted serially to determine the inhibitory concentration at 50% (EC50 value). […] Ranges of 50% effective concentrations (EC50s) for the representative compounds within the scope of this invention are listed in Tables 1-8. Preferred compounds have 50% effective concentrations at about 30 μM or less, more preferred compounds have 50% effective concentrations at about 5 μM or less, and most preferred compounds have 50% effective concentrations at about 0.5 μM or less.

[2] = Crystal Violet cellular toxicity in wild type replicon cells; type: cell-based; conditions: human
Procedure: (§1) Huh-7 cells (harboring no replicon) and wild type replicon cells were seeded onto a 96 well plate. All cells were subjected to increasing amounts of a representative compound of the invention, as described in the replicon ELISA protocol. In order to assess the cellular toxicity of a compound of Formula I in both Huh-7 cells (harboring no replicon) and wild type replicon, cells were stained with Crystal Violet (a nonspecific protein stain) after 72 hours. The […] values for cells lacking replicon were generally >100.0 μM in parental Huh-7 cells for each compound. […] In this case the cells' natural defenses are strengthened and apoptosis, a natural defense to viral infection, occurs. The Huh-7 cell line is the parental cell line harboring no HCV subgenomic replicon. In this cell line, the toxicity is reduced due to the fact that there is no NS4B for the compound to bind. If the cellular toxicity in cells comprising HCV replicons and in the parental Huh-7 cell line (no replicon) are the same, then they are effective in inhibiting HCV replication rather than the modulation of apoptosis.
(§2) During drug screening efforts to identify compounds having binding affinity for HCV NS4B, the triazinoindole class of compounds of Formula VII was identified. […] However a cellular toxicity (CC50) of 20 μM was also found. […]

[3] = Crystal Violet cellular toxicity in parental cells harboring no replicon; type: cell-based; conditions: human, parental Huh-7 cells (harboring no replicon), 72-hour period, parental Huh-7 cells lacking replicon
Procedure: as §1, §2

[4] = system: genotype 1b (BB7 isolate) replicon-containing cells; experiment: Selection of replicon variants under test compound; type: cell-based, hepatitis C virus; conditions: cell line passaged in the presence of 5 μM test compound for 7 passages
Procedure: To select for replicon variants, genotype 1b (BB7 isolate) replicon-containing cells were cultured and in the presence of 5 μM of the test compound for 7 passages. As a control, genotype 1b (BB7 isolate) replicon-containing cells were passaged in parallel, without the test compound. […] Total cellular RNA was extracted from both cell lines using Trizol Reagent (Invitrogen #15596-026) according to the manufacturer's protocol. NS5B cDNA was generated in a two-step RT-PCR reaction. PCR products were ligated into pPCR-Script Amp SK (+) (Stratagene #211188), transformed into E. coli, and sequenced.
The changes are as follows: K52R, G120V and A210S.

[5] = Table 1, phenyl benzamide compounds, read-out: Kd
[6] = Table 1, NS5A protein, 72-hour incubation, read-out: ELISA EC50
[7] = Table 2, pyrazolopyrimidine compounds, read-out: Kd
[8] = Table 2, NS5A protein, 72-hour incubation, read-out: ELISA EC50
[9] = Table 5, aminothiophene compounds, read-out: Kd
[10] = Table 5, NS5A protein, 72-hour incubation, read-out: ELISA EC50
[11] = Table 6, phenylthiazolylamine compounds, read-out: Kd
[12] = Table 6, NS5A protein, 72-hour incubation, read-out: ELISA EC50
[13] = Table 7, triazinoindole compounds, read-out: Kd
[14] = Table 7, NS5A protein, 72-hour incubation, read-out: ELISA EC50

With `CC(=O)c1ccc(NC(=O)c2cc3c(C)nn(-c4ccccc4)c3s2)cc1` [Example 1] the Kd (HCV NS4B; Table 4, thienopyrazole compound, read-out: Kd) was 1000 nM and the EC50 ([1]; Table 4, NS5A protein, 72-hour incubation, read-out: ELISA EC50) was 3150 nM.

Work on `CCC(C)c1ccc(NC(=O)c2ccccc2F)cc1` (stereo not shown) [Example 1] yielded a Kd (HCV NS4B; [5]) of 2530 nM and an EC50 [1, 6] of 2700 nM.

Compound `CCCCc1c(C)nn(-c2nnc3c4ccccc4n(CC)c3n2)c1C` [Example 1] has an EC50 ([1]; measured using the HCV subgenomic replicon system, read-out: EC50) of 1200 nM, a CC50 ([2]; HCV subgenomic replicon cells, found alongside EC50 in the HCV subgenomic replicon system) of 20000 nM and a CC50 at 72 h ([2]; Crystal Violet, 72-hour period, cells containing wild type replicons) of 20000 nM. For the same compound, the CC50 at 72 h [3] was > 100000 nM and the “reduced susceptibility to the compound” value [4] was “over 10 fold”.

For `CCCc1cc(O)n2nc(-c3ccc(C)cc3)c(C)c2n1` [Example 1], the Kd (HCV NS4B; [7]) was 5960 nM and the EC50 [1, 8] was 2200 nM.

Compound `COC(=O)c1c(NC(=O)Cc2cccs2)sc(C(=O)Nc2ccc(Cl)cc2)c1C` [Example 1] has a Kd (HCV NS4B; [9]) of 304 nM and an EC50 [1, 10] of 700 nM.

For `COc1ccc(Cl)cc1Nc1nc(-c2cccnc2)cs1` [Example 1], the Kd (HCV NS4B; [11]) was 1700 nM and the EC50 [1, 12] was 1500 nM.

In the case of `Cc1nccn1-c1nc(-c2ccc(Cl)cc2)cc(C(F)(F)F)n1` [Example 1], the Kd (HCV NS4B; Table 3, trifluoromethylpyrimidine compound, read-out: Kd) is reported as 2060 nM and the EC50 ([1]; Table 3, NS5A protein, 72-hour incubation, read-out: ELISA EC50) is reported as 2200 nM.

In the case of `CC(=O)Nc1ccc(Nc2nc(-c3cccs3)cs2)cc1` [Example 2], the Kd (HCV NS4B; [11]) is reported as 6200 nM and the EC50 [1, 12] is reported as 11200 nM.

`CCn1c2ccccc2c2nnc(-n3nc(C)c(-c4ccccc4)c3C)nc21` [Example 2] showed a Kd (HCV NS4B; [13]) of 2200 nM and an EC50 [1, 14] of 1000 nM.

With `COC(=O)c1c(NC(=O)c2ccc3c(c2)OCO3)sc(C(=O)NC2CCCCC2)c1C` [Example 2] the Kd (HCV NS4B; [9]) was 4000 nM and the EC50 [1, 10] was 7600 nM.

`COc1ccc(C(=O)Nc2ccc(N3CCOCC3)c(Cl)c2)cc1Cl` [Example 2] showed a Kd (HCV NS4B; [5]) of 2320 nM and an EC50 [1, 6] of 2500 nM.

Compound `O=C(NC1CCCC1)c1cc2nc(-c3ccccc3)cc(C(F)(F)F)n2n1` [Example 2] has a Kd (HCV NS4B; [7]) of 4190 nM and an EC50 [1, 8] of 1700 nM.

With `CC(C)Oc1cccc(C(=O)Nc2ccc(N3CCOCC3)c(Cl)c2)c1` [Example 3] the Kd (HCV NS4B) was 4430 nM and the EC50 [1, 6] was 3900 nM.

Work on `CCCCc1c(C)nn(-c2nnc3c4ccccc4n(C)c3n2)c1C` [Example 3] yielded a Kd (HCV NS4B) of 4300 nM and an EC50 [1, 14] of 5800 nM.

Work on `COC(=O)c1c(NC(=O)C(C)C)sc(C(=O)Nc2ccc(Cl)cc2)c1C` [Example 3] yielded a Kd (HCV NS4B) of 842 nM and an EC50 [1, 10] of 1150 nM.

Compound `COc1ccc(OC)c(Nc2nc(-c3cccs3)cs2)c1` [Example 3] has a Kd (HCV NS4B; [11]) of 570 nM and an EC50 ([1]; 72 h, read-out: ELISA EC50) of 2500 nM.

In the case of `O=C(NCc1cccs1)c1cc2nc(-c3ccco3)cc(C(F)(F)Cl)n2n1` [Example 3], the Kd (HCV NS4B) is reported as 662 nM and the EC50 [1, 8] is reported as 630 nM.

With `CC(C)c1ccc(NC(=O)c2ccccc2)cc1` [Example 4] the Kd (HCV NS4B; [5]) was 6900 nM and the EC50 [1, 6] was 2800 nM.

`CCC(=O)Nc1sc(C(=O)Nc2ccc(C)cc2)c(C)c1C(=O)OC` [Example 4] gave a Kd (HCV NS4B; [9]) of 1670 nM and an EC50 [1, 10] of 3200 nM.

For `Cc1nn(-c2nnc3c4ccccc4n(C)c3n2)c(C)c1C` [Example 4], the Kd (HCV NS4B; [13]) was 14000 nM and the EC50 [1, 14] was > 25000 nM.

For `CCC(=O)Nc1sc(C(=O)Nc2ccc(Cl)cc2)c(C)c1C(=O)OC` [Example 5], the Kd (HCV NS4B; [9]) was 2520 nM and the EC50 [1, 10] was 4550 nM.

For `CCn1c2ccccc2c2nnc(-n3nc(C)c(C)c3C)nc21` [Example 5], the Kd (HCV NS4B; [13]) was 15600 nM and the EC50 [1, 14] was > 25000 nM.

In the case of `CCc1c(C)nn(-c2nnc3c4ccccc4n(C)c3n2)c1C` [Example 6], the Kd (HCV NS4B; [13]) is reported as 7500 nM and the EC50 [1, 14] is reported as > 25000 nM.

In the case of `CCCCc1c(C)nn(-c2nnc3c4ccccc4n(CCO)c3n2)c1C` [Example 7], the Kd (HCV NS4B; [13]) is reported as 2000 nM and the EC50 [1, 14] is reported as > 25000 nM.

Work on `CCCCc1c(C)nn(-c2nnc3c4ccccc4n(CCN(C(C)C)C(C)C)c3n2)c1C` [Example 8] yielded a Kd (HCV NS4B; [13]) of 10300 nM and an EC50 [1, 14] of 6550 nM.

For `CCCCc1c(C)nn(-c2nnc3c4ccccc4n(CCN(CC)CC)c3n2)c1C` [Example 9], the Kd (HCV NS4B; [13]) was 1800 nM and the EC50 [1, 14] was 5200 nM.

In the case of `CCCCc1c(C)nn(-c2nnc3c(n2)[nH]c2ccccc23)c1C` [Example 10], the Kd (HCV NS4B; [13]) is reported as 3600 nM and the EC50 [1, 14] is reported as > 25000 nM.

`CCCCc1c(C)nn(-c2nnc3c4ccccc4n(CCOC)c3n2)c1C` [Example 11] gave a Kd (HCV NS4B; [13]) of 1000 nM and an EC50 [1, 14] of 7000 nM.

Compound `CCCCc1c(C)nn(-c2nnc3c4ccccc4n(CCSC)c3n2)c1C` [Example 12] has a Kd (HCV NS4B; [13]) of 1800 nM and an EC50 [1, 14] of 10000 nM.
